In patent US20110129504A1, “COMPOSITION FOR CONTROLLING LIPASE CATALYZED REACTIONS” (NESTEC S.A., priority 2007, published 2011):

What was measured:
Rhizomucor miehei lipase [1] = biological target: T1, Rhizomucor miehei lipase (Rhizomucor miehei, UniProt P19515); test: Biphasic decane/buffer system: lipolytic hydrolysis of p-nitrophenylpalmitate; assay type: biochemical; conditions: monoglyceride 1.3 E-3 M in decane, p-nitrophenylpalmitate 2E-4M, phosphate buffer pH 5.5, 3,3 E-6 M lipase; 410 nm; vs reference without surfactant
Description: (§1) A biphasic system was prepared in glass test tubes with the following composition: • Upper oil phase is composed of 7 ml decane in the absence (control) or presence of (1,3 E-3M) monoglyceride and 20 ul tricaprylin or p-nitrophenypalmitate (2E-4M) • Aqueous phase is composed of 2 ml phosphate buffer, pH 5.5 containing 3,3 E-6 M Rhizomucor miehei lipase. The caprylic acid generation in the presence and absence of monoglycerides (surfactant) is monitored by GC-FID. 100 ul of the upper oil phase are taken and added to 900 ul Chloroform before direct injection into the GC. The nitrophenol generation is followed by spectroscopic analysis at 410 nm of the aqueous phase. FIGS. 7 and 8 show the amount of caprylic acid formed after the lipolytic hydrolysis of the p-nitropheylpalmitate and tricaprylin in the presence of Sn1 (hydrolysable surfactants) or Sn2 (non-hydrolysable) monoglycerides. […] This is an indication that with the used monoglyceride concentration (the concentration was constant at 1.3 E-3 M) not enough surfactant is adsorbing to the water-oil interface, since the Sn2M20:4 is too lipohilic and partitions more into the bulk oil than to the interface.

Rhizomucor miehei lipase [2] = biological target: T1, Rhizomucor miehei lipase; test: Biphasic decane/buffer system: lipolytic hydrolysis of tricaprylin; assay type: biochemical; conditions: monoglyceride 1,3 E-3M in decane, 20 ul tricaprylin, phosphate buffer pH 5.5, 3,3 E-6 M lipase; vs no surfactant; GC-FID
Description: as §1

lipase = test: TIM gastro-intestinal model (TNO) digestion of Tricaprylin emulsion; assay type: biochemical
Description: 8 ml Tricaprylin containing 2.0 g Sn2-Monopalmitin (non-cleavable surfactant) was mixed with 200 ml phosphate buffer pH 5.5 and 20 mg/ml starch (emulsifier) using an Ultra Turrax for 2 minutes, and subsequent sonification for 10 minutes. The reference emulsion system contains the same amount of tricaprylin and starch, however, no Sn2-monopalmitin. Model digestion runs of the 2 samples were performed using a gastro-intestinal model system provided by TNO. Physiological conditions (e.g. temperature, enzyme type and load, bile salt concentration, pH) were predefined via the TIM programming system. The hydrolysis of Tricaprylin was followed by monitoring the caprylic acid release after passing the different gastro-intestinal compartments. […] The extraction of the generated fatty acids after passing the different compartments was performed by taking 100 ul of the reaction mixture, adding 900 ul chloroform together with 100 ul Chloridric acid 1M. The samples were vortexed and centrifuged at 5000 rpm for 10 min. 500 ul of the supernatant was taken and directly injected into a GC-FID. 3 samples were analysed for each reaction time at each gastro-intestinal compartment.
Additional experiments were performed where sn-2 monopalmitin was replaced Lysophosphotidilcholine (LysoPC). The effect of LysoPC on fat gastric digestion were studied.

[3] = Pendant drop interfacial tension at buffer/decane interface; assay type: physicochemical
From the text: The interfacial tension of pure Tricaprylin (free of any residues of polar lipids), should remain above 30 mN/m. Therefore, a more interfacial active molecule (like monocaprylin), has the capacity to exclude the triglyceride from the interface.

T1 sequence (P19515 95-363): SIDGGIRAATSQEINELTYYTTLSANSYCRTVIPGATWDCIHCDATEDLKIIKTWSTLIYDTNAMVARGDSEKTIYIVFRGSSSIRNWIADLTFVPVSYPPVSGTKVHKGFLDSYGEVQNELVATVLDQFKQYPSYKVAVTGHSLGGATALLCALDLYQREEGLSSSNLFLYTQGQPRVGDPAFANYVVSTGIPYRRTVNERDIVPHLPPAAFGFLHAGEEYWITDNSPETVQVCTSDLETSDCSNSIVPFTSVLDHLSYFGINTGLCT

| Molecule | kinetics of nitrophenol formation from p-nitrophenylpalmitate (Rhizomucor miehei lipase [1]) | kinetics of lipolytic caprylic acid formation from tricaprylin (Rhizomucor miehei lipase [2]) | other results |
| --- | --- | --- | --- |
| CCCCCCCC(=O)OCC(O)CO (centres unmarked) [Sn1 M8] | quite similar to the observations made in the reference system |  |  |
| CCCCCCCCCCCC(=O)OCC(O)CO (centres unmarked) [Sn1 M12] | quite similar to the observations made in the reference system |  |  |
| CCCCCCCCCCCCCCCC(=O)OCC(O)CO (centres unmarked) [Sn1-M16] | quite similar to the observations made in the reference system |  |  |
| CCCCCCCC(=O)OC(CO)CO [Sn2-M8] | significant reduction | reduced |  |
| CCCCCCCCCCCC(=O)OC(CO)CO [Sn2-M12] | significant reduction | reduced |  |
| CCCCCCCCCCCCCCCC(=O)OC(CO)CO [Sn2-M16, Sn-2 Monopalmitin] | significant reduction | reduced | Caprylic acid (C8) detected after passing through the ileum and jejunum (lipase; 8 ml Tricaprylin containing 2.0 g surfactant, phosphate buffer pH 5.5, starch emulsifier, vs reference emulsion without surfactant, GC-FID, FIG. 2): almost no caprylic acid is detected; caprylic acid content in the lumen of the stomach, duodenum, jejunum and in the efflux (lipase; compared with the ileum/jejunum result (almost no caprylic acid), FIGS. 3, 4 and 5): A similar result is obtained |
| CCCCCCCCCCCCCCCCCCCC(=O)OC(CO)CO [monoarachidin, Sn-2 monoarachidin] |  |  | interfacial tension between the buffer and the decane solution ([3]; as a function of titrated (added) surfactant, FIG. 8): induces a decrease of the measured interfacial tension |
| CCCCCCCC(=O)OCC(O)CO (centres unmarked) [monocaprylin] |  |  | interfacial activity compared with caprylic acid (C8) and dicaprylin (DC8) ([3]; buffer/decane interface, FIG. 9): considerably more interfacially active |
| Lysophosphotidilcholine [LysoPC] |  |  | gastric lipolysis of triglycerides (lipase; sn-2 monopalmitin replaced by LysoPC, lumen of stomach, FIG. 3): considerable effect in decreasing gastric lipolysis |
